The text below walks through data of patent US7973051B2 (Hoffman-La Roche Inc., priority 2007, dated 2011).

In the test the target is T1, human liver FBPase (Homo sapiens, UniProt P09467).
T1 construct: made in house; host or cells: E. coli
T1 sequence (P09467 2-338 limits assumed): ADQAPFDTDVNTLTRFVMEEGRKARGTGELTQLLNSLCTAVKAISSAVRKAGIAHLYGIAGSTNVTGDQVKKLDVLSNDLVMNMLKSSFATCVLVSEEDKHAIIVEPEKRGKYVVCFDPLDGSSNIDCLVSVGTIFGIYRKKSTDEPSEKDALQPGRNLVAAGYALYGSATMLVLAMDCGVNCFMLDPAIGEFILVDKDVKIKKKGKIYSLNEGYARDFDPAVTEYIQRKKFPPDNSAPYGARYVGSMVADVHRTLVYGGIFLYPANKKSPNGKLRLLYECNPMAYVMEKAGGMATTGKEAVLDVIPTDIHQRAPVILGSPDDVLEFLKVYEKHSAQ
The test can be described thus: FBPase assay: inorganic phosphate release (malachite green). Format: biochemical. The conditions noted are these: recombinant human liver FBPase, 50 μM fructose-1,6-bisphosphate, read-out at 620 nm. As to the method: The following tests were carried out for evaluating the inhibitory activity of the compounds of the present invention against human liver FBPase (Swissprot Data base reference P09467, entry F16P_HUMAN).
Human liver FBPase cDNA (NM_000507) was purchased from Origene Technologies, Inc, subcloned in a vector for expression in E. Coli., and sequenced. Recombinant human liver FBPase (hlFBPase) was purified according to the following protocol that uses heat denaturation similarly to that described by El-Maghrabi et. al. [El-Maghrabi, M. R. et al. “Isolation of a human liver fructose-1,6-bisphosphatase cDNA and expression of the protein in Escherichia coli.” J Biol Chem 268:9466-9472, 1993.]. Briefly, E. coli cells, transiently expressing very high levels of soluble and active human liver FBPase, were suspended in 20 mM Tris-HCl pH 7.5, 1 mM EDTA, 1 mM DTT and were lysed by French press. The soluble extract was heat denatured at 65° C. for 5 min, and insoluble, denatured proteins were removed by centrifugation. The extract was then applied to a BioRad Macro-Prep High Q column equilibrated with 20 mM Tris-HCl pH 7.5, 1 mM EDTA, 1 mM DTT and the flow-through (containing FBPase activity) was collected and applied to a BioRad Macro-Prep HS column equilibrated with 20 mM HEPES pH 7.2, 1 mM DTT. A gradient of increasing NaCl concentration was then applied to the HS column and fractions were collected. Fractions containing active FBPase were pooled and further purified by size exclusion chromatography on a Sephacryl S200 column equilibrated in 20 mM Tris-HCl pH 7.5, 150 mM NaCl, 1 mM EDTA, 1 mM DTT. Purity of the enzyme preparation was >90% as assessed by Mass spectrometry.
Recombinant human liver FBPase (hlFBPase) activity was assayed through measuring the inorganic phosphate release that results from the hydrolysis of Fructose-1,6-bisphosphate by the enzyme. As described by Baykov A. A. et al. in [Baykov A. A et al., “Malachite Green procedure for orthophosphate determination and its use in alkaline phosphatase-based enzyme immunoassays”. Anal. Biochem., 171:266-270, 1988], inorganic phosphate can be readily quantified by spectrophotometry at 620 nm after complexation with ammonium molybdate/malachite green reagent. Enzymatic reaction was carried out with modifications of the procedure described by Wright S. W. et al. [Wright S. W. et al., “Anilinoquinazoline inhibitors of Fructose-1,6-bisphosphatase bind to a novel allosteric site: synthesis, in vitro characterization, and X-ray crystallography”. J. Med. Chem. 45:3865-3877, 2002]. Specifically, the reaction was carried out in 96 well plates in a final volume of 100 μl in the presence or in the absence of allosteric inhibitors. Reaction was started adding 25 ng of hlFBPase to the reaction mixture containing 50 mM HEPES-KOH buffer pH 7.2, 2 mM MgCl2, 2 mM EDTA, 1 mM DTT, 50 μM fructose-1,6-bisphosphate and 1% DMSO. After 50 minutes incubation at room temperature, the phosphate released was allowed to form a colored complex for 10 min by adding 150 μl of ammonium molybdate/malachite green reagent containing 0.03% malachite green, 0.2% ammonium molybdate, 0.05% Triton X-100 and 0.7 M H2SO4 in water that was stirred for 30 min at room temperature and filtered through 0.2 μm filter. Under these conditions, the assay was linear with time and able to detect FBPase inhibition after spectrophotometric read-out at 620 nm.
On to `COCCc1sc(S(=O)(=O)NC(=O)Nc2nc3c(C)cccc3s2)cc1C` [Example 91, 5-(2-Methoxyethyl)-4-methyl-N-[(4-methyl-1,3-benzothiazol-2-yl)carbamoyl]thiophene-2-sulfonamide], for which the IC50 came out at 375 nM.
As for `COc1cccc2cc(S(=O)(=O)NC(=O)Nc3ncc(Br)s3)n(C)c12` [Example 40, N-[(5-bromo-1,3-thiazol-2-yl)carbamoyl]-7-methoxy-1-methyl-1H-indole-2-sulfonamide], the IC50 was 329 nM.
Regarding `CCc1nc(NC(=O)NS(=O)(=O)c2cc(C)c(CCO)s2)sc1CC` [Example 69, N-[(4,5-Diethyl-1,3-thiazol-2-yl)carbamoyl]-5-(2-hydroxyethyl)-4-methylthiophene-2-sulfonamide], the IC50 came to 340 nM.
To `Cc1cc(S(=O)(=O)NC(=O)Nc2nc3c(C)cccc3s2)sc1CCO` [Example 94, 5-(2-Hydroxyethyl)-4-methyl-N-[(4-methyl-1,3-benzothiazol-2-yl)carbamoyl]thiophene-2-sulfonamide] belongs 64 nM; to `CCc1nc(NC(=O)NS(=O)(=O)c2cc(C)c(CCOC)s2)sc1SC` [Example 82, N-{[4-Ethyl-5-(methylthio)-1,3-thiazol-2-yl]carbamoyl}-5-(2-methoxyethyl)-4-methylthiophene-2-sulfonamide], 144 nM.
To `COCCn1cc(S(=O)(=O)NC(=O)Nc2ncc(Br)s2)c2ccccc21` [Example 31, N-[(5-Bromo-1,3-thiazol-2-yl)carbamoyl]-1-(2-methoxyethyl)-1H-indole-3-sulfonamide] belongs 2250 nM; to `COC(=O)c1ccc2scc(S(=O)(=O)NC(=O)Nc3ncc(Br)s3)c2c1` [Example 10, Methyl-3-({[(5-bromo-1,3-thiazol-2-yl)carbamoyl]amino}sulfonyl)-1-benzothiophene-5-carboxylate], 446 nM.
To `CSc1sc(NC(=O)NS(=O)(=O)c2cc(C)c(CCO)s2)nc1C` [Example 86, 5-(2-Hydroxyethyl)-4-methyl-N-{[4-methyl-5-(methylthio)-1,3-thiazol-2-yl]carbamoyl}thiophene-2-sulfonamide] belongs 71 nM; to `COCc1nc(NC(=O)NS(=O)(=O)c2cc(C)c(CCO)s2)sc1SC` [Example 88, 5-(2-Hydroxyethyl)-N-{[4-(methoxymethyl)-5-(methylthio)-1,3-thiazol-2-yl]carbamoyl}-4-methylthiophene-2-sulfonamide], 369 nM.
Consider `COCCc1sc(S(=O)(=O)NC(=O)Nc2nc3ccc(OC)nc3s2)cc1C` [Example 90, 5-(2-Methoxyethyl)-N-[(5-methoxy[1,3]thiazolo[5,4-b]pyridin-2-yl)carbamoyl]-4-methylthiophene-2-sulfonamide], for which the IC50 is 842 nM.
As to `COC(=O)c1cccc2c(S(=O)(=O)NC(=O)Nc3ncc(Br)s3)cn(C)c12` [Example 32, Methyl 3-({[(5-bromo-1,3-thiazol-2-yl)carbamoyl]amino}sulfonyl)-1-methyl-1H-indole-7-carboxylate], the IC50 was found to be 653 nM.
To `COc1cnc(NC(=O)NS(=O)(=O)c2cn(C)c3c(OC)cccc23)s1` [Example 44, 7-Methoxy-N-[(5-methoxy-1,3-thiazol-2-yl)carbamoyl]-1-methyl-1H-indole-3-sulfonamide] belongs 1320 nM.
`COCc1nc(NC(=O)NS(=O)(=O)c2cc(C)c(CCOC(C)=O)s2)sc1SC` [Example 87, 2-{5-[({[4-(Methoxymethyl)-5-(methylthio)-1,3-thiazol-2-yl]carbamoyl}amino)sulfonyl]-3-methyl-2-thienyl}ethyl acetate]: the half-inhibitory concentration (IC50) was determined as 501 nM.
Then `CCc1sc(NC(=O)NS(=O)(=O)c2cc(C)c(CCO)s2)nc1C(C)C` [Example 79, N-[(5-Ethyl-4-isopropyl-1,3-thiazol-2-yl)carbamoyl]-5-(2-hydroxyethyl)-4-methylthiophene-2-sulfonamide], with 188 nM; and `COc1cnc(NC(=O)NS(=O)(=O)c2cn(C)c3c(OCCOC(C)=O)cccc23)s1` [Example 46, 2-{[3-({[(5-Methoxy-1,3-thiazol-2-yl)carbamoyl]amino}sulfonyl)-1-methyl-1H-indol-7-yl]oxy}ethyl acetate], with 3500 nM.
On to `CCc1sc(NC(=O)NS(=O)(=O)c2cc(C)c(CCO)s2)nc1C` [Example 70, N-[(5-Ethyl-4-methyl-1,3-thiazol-2-yl)carbamoyl]-5-(2-hydroxyethyl)-4-methylthiophene-2-sulfonamide], for which the IC50 was determined as 417 nM.
Consider `CCc1sc(NC(=O)NS(=O)(=O)c2csc(C)c2)nc1C(C)C` [Example 78, N-[(5-Ethyl-4-isopropyl-1,3-thiazol-2-yl)carbamoyl]-5-methylthiophene-3-sulfonamide], for which the IC50 was 168 nM.
On to `Cn1cc(S(=O)(=O)NC(=O)Nc2ncc(Br)s2)c2cc(F)ccc21` [Example 26, N-[(5-Bromo-1,3-thiazol-2-yl)carbamoyl]-5-fluoro-1-methyl-1H-indole-3-sulfonamide], for which the IC50 came to 341 nM.
In the case of `CCc1nc(NC(=O)NS(=O)(=O)c2cc(C)c(CCOC)s2)sc1Br` [Example 58, N-[(5-Bromo-4-ethyl-1,3-thiazol-2-yl)carbamoyl]-5-(2-methoxyethyl)-4-methylthiophene-2-sulfonamide], the IC50 worked out at 155 nM.
As for `CCc1sc(NC(=O)NS(=O)(=O)c2cc(C)c(CCOC)s2)nc1C` [Example 60, N-[(5-Ethyl-4-methyl-1,3-thiazol-2-yl)carbamoyl]-5-(2-methoxyethyl)-4-methylthiophene-2-sulfonamide], the 50% inhibitory concentration (IC50) turned out to be 341 nM.
On to `Cn1cc(S(=O)(=O)NC(=O)Nc2ncc(Br)s2)c2cccc(OCCO)c21` [Example 49, N-[(5-Bromo-1,3-thiazol-2-yl)carbamoyl]-7-(2-hydroxyethoxy)-1-methyl-1H-indole-3-sulfonamide], for which the IC50 worked out at 104 nM.
To `CCc1nc(NC(=O)NS(=O)(=O)c2csc(C)c2)sc1OC` [Example 61, N-[(4-Ethyl-5-methoxy-1,3-thiazol-2-yl)carbamoyl]-5-methylthiophene-3-sulfonamide] belongs 466 nM; to `Cc1ccc2sc(S(=O)(=O)NC(=O)Nc3ncc(Br)s3)cc2c1` [Example 1, N-[(5-Bromo-1,3-thiazol-2-yl)carbamoyl]-5-methyl-1-benzothiophene-2-sulfonamide], 89 nM.
Regarding `Cc1c(S(=O)(=O)NC(=O)Nc2ncc(Br)s2)sc2ccc(Br)cc12` [Example 5, 5-Bromo-N-[(5-bromo-1,3-thiazol-2-yl)carbamoyl]-3-methyl-1-benzothiophene-2-sulfonamide], the IC50 worked out at 1470 nM.
Then `CCc1sc(NC(=O)NS(=O)(=O)c2cc(C)c(CCOC)s2)nc1-c1ccccc1` [Example 72, N-[(5-Ethyl-4-phenyl-1,3-thiazol-2-yl)carbamoyl]-5-(2-methoxyethyl)-4-methylthiophene-2-sulfonamide], with 224 nM.
Then `O=C(Nc1ncc(Br)s1)NS(=O)(=O)c1cc2ccccc2s1` [Example 2, N-[(5-Bromo-1,3-thiazol-2-yl)carbamoyl]-1-benzothiophene-2-sulfonamide], with 434 nM; and `COC(=O)c1ccc2c(c1)c(S(=O)(=O)NC(=O)Nc1ncc(Br)s1)cn2C` [Example 25, Methyl 3-({[(5-bromo-1,3-thiazol-2-yl)carbamoyl]amino}sulfonyl)-1-methyl-1H-indole-5-carboxylate], with 731 nM.

A word on the IC50: it is the concentration that inhibits the measured activity by half.
